Test results published in patent publication US11820822B2, “Methods for sensitizing cancer cells to T cell-mediated killing by modulating molecular pathways” (DANA-FARBER CANCER INSTITUTE, INC., priority 2017, dated 2023).

Key:
[1] = tested on: B16F10-Cas9 cells pulsed with SIINFEKL peptide, co-cultured with OT-I T cells; assay: Genome-scale CRISPR-Cas9 screen, selection with OT-I T cells; format: cell-based, mouse; details: Table 3; B16F10-Cas9 cells pulsed with SIINFEKL, co-cultured with OT-I T cells 1:1 for one day; negative = depleted, positive = enriched
[2] = tested on: B16F10-Cas9 cells co-cultured with Pmel-1 T cells; assay: Genome-scale CRISPR-Cas9 screen, selection with Pmel-1 T cells; format: cell-based, mouse; details: Table 3; B16F10-Cas9 cells pre-treated with IFNγ, co-cultured with Pmel-1 T cells 1:1 for three days; negative = depleted, positive = enriched

| Sequence | OT1 (sgRNA Log(2) fold change, OT-I selection versus control T cells) [1] | Pmel+ (sgRNA Log(2) fold change, Pmel-1 selection versus control T cells) [2] |
| --- | --- | --- |
| AAAAATTCAACGTTGAAACA (chemistry not fully specified) | -1.37 | -3.43 |
| AAAACGGTCTCAAGCCAATG (chemistry not fully specified) | -3.05 | 1.05 |
| AAACAAGAGCACACTCCCCG (chemistry not fully specified) | -2.06 | 1.49 |
| AAACATATAGTGTACCTCTA (chemistry not fully specified) | 2.36 | 10.21 |
| AACTTCAGTAGCGGGCGACG (chemistry not fully specified) | -2.23 | 0.00 |
| AAGACATATAGTTATCAGCA (chemistry not fully specified) | -2.22 | -1.83 |
| AAGGGCCACTTACAATTAGG (chemistry not fully specified) | -0.44 | 2.10 |
| AAGTCCTAGATAAAGCACAT (chemistry not fully specified) | 3.13 | 3.43 |
| AATGCTGACGACTTTCAATG (chemistry not fully specified) | -2.31 | 0.00 |
| ACACAACGCTAAGACAGTCG (chemistry not fully specified) | -3.60 | -0.22 |
| ACAGATACGGAGTGTCCCGT (chemistry not fully specified) | 2.85 | 1.90 |
| ACAGCCTCCCAATATCTCAG (chemistry not fully specified) | -3.56 | -0.54 |
| ACAGGGAAAGCATGGGACAC (chemistry not fully specified) | -2.35 | 0.76 |
| ACATTGATACGCACACTCAC (chemistry not fully specified) | -2.37 | 1.41 |
| ACCTCCGAATGATCAATGGG (chemistry not fully specified) | -2.52 | -0.84 |
| ACGACGAGGAGTTCGAATAC (chemistry not fully specified) | -2.76 | -0.86 |
| ACGCAATGAAAAGGTTTAGG (chemistry not fully specified) | -2.24 | 2.19 |
| ACTAATGGACTCGCACACGT (chemistry not fully specified) | -0.42 | 2.09 |
| ACTCACTCTGGATAGCATAC (chemistry not fully specified) | 5.27 | 3.80 |
| ACTCGTACAGCTCCTGTGGT (chemistry not fully specified) | 0.67 | 2.62 |
| ACTTCAAAGTCCATGGCACA (chemistry not fully specified) | -2.45 | -0.63 |
| ACTTCTGATTGGCGATTCTG (chemistry not fully specified) | -3.78 | -2.49 |
| AGAAGCCACTCGGACTACTG (chemistry not fully specified) | -0.30 | 2.77 |
| AGAAGGCAGGCAGAGTGGTG (chemistry not fully specified) | -2.13 | -0.75 |
| AGAGATCTGCGCCATTTAAG (chemistry not fully specified) | -3.28 | -0.91 |
| AGATTGTCAACAATGGAACT (chemistry not fully specified) | -2.17 | 0.00 |
| AGCGTATAATCTTCGATCAG (chemistry not fully specified) | -2.46 | 1.35 |
